Measurements: the NIST ThermoML archive (doi:10.1021/je050399c)

Conditions: Fluid (supercritical or subcritical phases), Vibrating wire viscometry

N#N [nitrogen]
Conditions	viscosity [mPa·s]
298.15 K, 100 kPa	0.01778
298.15 K, 150 kPa	0.01779
298.15 K, 200 kPa	0.01781
298.15 K, 250 kPa	0.01782
298.15 K, 300.1 kPa	0.01782
298.15 K, 350.1 kPa	0.01784
298.15 K, 400 kPa	0.01784
298.15 K, 450.1 kPa	0.01784
298.15 K, 500.1 kPa	0.01785
298.15 K, 600.1 kPa	0.01786
298.15 K, 700.1 kPa	0.01787
298.15 K, 800.1 kPa	0.01789
298.15 K, 900.1 kPa	0.0179
298.15 K, 1000.2 kPa	0.01792
298.15 K, 1100.2 kPa	0.01793
298.15 K, 1200.1 kPa	0.01795
298.15 K, 1300.1 kPa	0.01796
298.15 K, 1400.1 kPa	0.01797
298.15 K, 1500.1 kPa	0.01798
298.15 K, 1599.9 kPa	0.018
298.15 K, 1700 kPa	0.01801
298.15 K, 1800.1 kPa	0.01803
298.15 K, 1899.9 kPa	0.01805
298.15 K, 2000.4 kPa	0.01806
298.15 K, 2250 kPa	0.0181
298.15 K, 2500.3 kPa	0.01815
298.15 K, 2750.4 kPa	0.01818
298.15 K, 3000.9 kPa	0.01822
298.15 K, 3250.3 kPa	0.01825
298.15 K, 3500.7 kPa	0.01831
298.15 K, 3750.7 kPa	0.01835
298.15 K, 4001 kPa	0.01841
298.15 K, 4250.5 kPa	0.01846
298.15 K, 4499.8 kPa	0.01851
298.15 K, 4749.9 kPa	0.01858
298.15 K, 5000.5 kPa	0.01861
298.15 K, 5500.9 kPa	0.01872
298.15 K, 6005.4 kPa	0.01884
298.15 K, 6500.4 kPa	0.01897
298.15 K, 7002.5 kPa	0.01909
298.15 K, 7501.6 kPa	0.01921
298.15 K, 8000.9 kPa	0.01934
298.15 K, 8500.9 kPa	0.01947
298.15 K, 8999.3 kPa	0.01961
298.15 K, 9499.4 kPa	0.01973
298.15 K, 10001 kPa	0.01988
298.15 K, 11005 kPa	0.02018
298.15 K, 12002 kPa	0.02047
298.15 K, 13004 kPa	0.02079
298.15 K, 14004 kPa	0.0211
298.15 K, 15006 kPa	0.02142
298.15 K, 16001 kPa	0.02176
298.15 K, 17010 kPa	0.02211
298.15 K, 18008 kPa	0.02247
298.15 K, 19006 kPa	0.02284
298.15 K, 20005 kPa	0.02318
298.15 K, 21000 kPa	0.02354
298.15 K, 22001 kPa	0.02391
298.15 K, 23008 kPa	0.02429
298.15 K, 24003 kPa	0.02466
298.15 K, 25014 kPa	0.02503
298.15 K, 26005 kPa	0.02541
298.15 K, 27010 kPa	0.02581
298.15 K, 28009 kPa	0.0262
298.15 K, 29013 kPa	0.02657
298.15 K, 30010 kPa	0.02695
298.15 K, 31009 kPa	0.02735
298.15 K, 31995 kPa	0.02774
298.15 K, 33004 kPa	0.02814
298.15 K, 33949 kPa	0.02852
298.15 K, 35027 kPa	0.02893
323.15 K, 100 kPa	0.0189
323.15 K, 200.1 kPa	0.01893
323.15 K, 300.1 kPa	0.01895
323.15 K, 400.1 kPa	0.01896
323.15 K, 600.1 kPa	0.01898
323.15 K, 800.3 kPa	0.019
323.15 K, 1000.6 kPa	0.01903
323.15 K, 1500.7 kPa	0.0191
323.15 K, 2000.7 kPa	0.01917
323.15 K, 2500.9 kPa	0.01924
323.15 K, 3000.8 kPa	0.01932
323.15 K, 3502.6 kPa	0.0194
323.15 K, 4001.8 kPa	0.01948
323.15 K, 4500.4 kPa	0.01957
323.15 K, 5002.2 kPa	0.01965
323.15 K, 5503.9 kPa	0.01976
323.15 K, 6003.6 kPa	0.01983
323.15 K, 6503.6 kPa	0.01994
323.15 K, 7009.3 kPa	0.02005
323.15 K, 7502.7 kPa	0.02015
323.15 K, 8003.1 kPa	0.02027
323.15 K, 8504.2 kPa	0.02038
323.15 K, 9006.1 kPa	0.0205
323.15 K, 9500.4 kPa	0.02062
323.15 K, 10007 kPa	0.02073
323.15 K, 11007 kPa	0.02098
323.15 K, 12006 kPa	0.02124
323.15 K, 13005 kPa	0.02151
323.15 K, 14005 kPa	0.02176
323.15 K, 15005 kPa	0.02205
323.15 K, 16009 kPa	0.02233
323.15 K, 17007 kPa	0.02262
323.15 K, 18000 kPa	0.02292
323.15 K, 19007 kPa	0.02323
323.15 K, 19999 kPa	0.02354
323.15 K, 21010 kPa	0.02383
323.15 K, 22011 kPa	0.02417
323.15 K, 23013 kPa	0.02451
323.15 K, 24004 kPa	0.02481
323.15 K, 25005 kPa	0.02511
323.15 K, 26011 kPa	0.02547
323.15 K, 27000 kPa	0.02579
323.15 K, 28012 kPa	0.02613
323.15 K, 29014 kPa	0.02646
323.15 K, 30014 kPa	0.02677
323.15 K, 31013 kPa	0.02714
323.15 K, 31997 kPa	0.02746
323.15 K, 33007 kPa	0.02781
323.15 K, 34009 kPa	0.02814
323.15 K, 35066 kPa	0.02852
348.15 K, 100.1 kPa	0.02
348.15 K, 200.1 kPa	0.02003
348.15 K, 300.1 kPa	0.02004
348.15 K, 400.2 kPa	0.02005
348.15 K, 600.5 kPa	0.02007
348.15 K, 800.6 kPa	0.02009
348.15 K, 1000.9 kPa	0.02011
348.15 K, 1501.9 kPa	0.02017
348.15 K, 2001.6 kPa	0.02023
348.15 K, 2502 kPa	0.0203
348.15 K, 3002.6 kPa	0.02037
348.15 K, 3504.2 kPa	0.02044
348.15 K, 3999.6 kPa	0.02051
348.15 K, 4508.2 kPa	0.02058
348.15 K, 5002.2 kPa	0.02066
348.15 K, 5502.8 kPa	0.02074
348.15 K, 6003.4 kPa	0.02084
348.15 K, 6501.3 kPa	0.02092
348.15 K, 7002.3 kPa	0.02101
348.15 K, 7502.5 kPa	0.0211
348.15 K, 8002.1 kPa	0.0212
348.15 K, 8501.8 kPa	0.02129
348.15 K, 9004 kPa	0.02139
348.15 K, 9498.9 kPa	0.0215
348.15 K, 10001 kPa	0.02161
348.15 K, 11007 kPa	0.02182
348.15 K, 12007 kPa	0.02203
348.15 K, 13006 kPa	0.02227
348.15 K, 14001 kPa	0.0225
348.15 K, 15011 kPa	0.02274
348.15 K, 16001 kPa	0.02299
348.15 K, 17002 kPa	0.02326
348.15 K, 18004 kPa	0.02351
348.15 K, 19008 kPa	0.02378
348.15 K, 20006 kPa	0.02404
348.15 K, 21004 kPa	0.02431
348.15 K, 22011 kPa	0.02458
348.15 K, 23006 kPa	0.02486
348.15 K, 24004 kPa	0.02515
